{
  "source": "patent US8497249B1",
  "about": "“Fungicidal properties of three saponins from Capsicum frutescens” (The United States of America, as represented by the …, priority 2008, dated 2013)",
  "key": {"[1]": {"system": "Aspergillus flavus", "test": "Conidial viability bioassay (30 min incubation, colony enumeration)", "type": "cell-based", "design": "key to Lowest concentration showing significant (p < 0.001) viability reduction: CAY-1 Control / Total Weight of mixture: —: No viability reduction observed", "settings": "for Lowest concentration showing significant (p < 0.001) viability reduction: CAY-1 Control / Total Weight of mixture: 30 min incubation; for Reduction of conidial viability / fungicidal activity (in words): FIG. 2A", "description": "(§1) Bioassays were performed as described earlier (De Lucca et al. 2002, 2006b, supra). The test fungi (Aspergillus flavus, A. niger, A. fumigatus, Fusarium oxysporum, F. solani, and F. verticilioides (formerly F. moniliforme) were grown on potato dextrose agar (Difco, Detroit, Mich.) slants for seven days (30° C.). When needed, conidia were suspended in 1% potato dextrose broth (Difco, Detroit, Mich.), pH 5.2 (PDB). Using a hemocytometer, stock suspension concentrations were determined and final (working) concentrations of 3×10^4 conidia/ml were prepared. Following preparation of the conidia, a sample of nongerminated conidia was immediately used in the bioassay to determine the effect of the saponins on nongerminated conidia. An additional conidial sample for each fungus was incubated for 8 hr at 30° C. These conidia were used in bioassays to determine activity of the saponins against germinating conidia.\n(§2) Individual bioassays consisted of conidia (25 μl), PDB, and the appropriate amount of a mixture of CAY-1, 1081 and 919. The CAY-1 control (CAY-1 alone) bioassays measuring the fungicidal response against the same fungi were performed in a similar manner. Final test volumes were 250 μl. Controls consisted of conidia and PDB medium.\n(§3) After a 30 min incubation period (30° C.), aliquots (50 μl) of each sample were spread on each of four potato dextrose agar plates. The plates were incubated for 48 hours at 30° C., followed by colony enumeration. Three separate runs per conidial type and fungus were performed (n=12).\n(§4) Statistical analyses were performed on the data using SigmaStat 3.1 (Systat, Point Richmond, Calif.). Significance (p<0.001) was determined between viability control and test saponin data."}, "[2]": {"system": "A. fumigatus", "test": "Conidial viability bioassay (30 min incubation, colony enumeration)", "type": "cell-based, Aspergillus fumigatus", "design": "key: —: No viability reduction observed", "description": "as §1\n(§5) Individual bioassays consisted of conidia (25 μl), PDB, and the appropriate amount of a mixture of CAY-1, 1081 and 919. The CAY-1 control (CAY-1 alone) bioassays measuring the fungicidal response against the same fungi were performed in a similar manner. Final test volumes were 250 μl. […]\nas §4"}, "[3]": {"system": "A. niger", "test": "Conidial viability bioassay (30 min incubation, colony enumeration)", "type": "cell-based, Aspergillus niger", "design": "key to Lowest concentration showing significant (p < 0.001) viability reduction: CAY-1 Control / Total Weight of mixture: —: No viability reduction observed", "settings": "for Lowest concentration showing significant (p < 0.001) viability reduction: CAY-1 Control / Total Weight of mixture: 30 min incubation; for Reduction of conidial viability / fungicidal activity (in words): FIG. 2C", "description": "as §1, §2, §3, §4"}, "[4]": {"system": "Fusarium oxysporum", "test": "Conidial viability bioassay (30 min incubation, colony enumeration)", "type": "cell-based", "design": "key: —: No viability reduction observed", "description": "as §1, §5, §4"}, "[5]": {"system": "F. solani", "test": "Conidial viability bioassay (30 min incubation, colony enumeration)", "type": "cell-based, Fusarium solani", "design": "key to Lowest concentration showing significant (p < 0.001) viability reduction: CAY-1 Control / Total Weight of mixture: —: No viability reduction observed", "settings": "for Lowest concentration showing significant (p < 0.001) viability reduction: CAY-1 Control / Total Weight of mixture: 30 min incubation; for Reduction of conidial viability / fungicidal activity (in words): FIG. 2F", "description": "as §1, §2, §3, §4"}, "[6]": {"system": "F. verticilioides (formerly F. moniliforme)", "test": "Conidial viability bioassay (30 min incubation, colony enumeration)", "type": "cell-based, Fusarium verticilioides", "design": "key to Lowest concentration showing significant (p < 0.001) viability reduction: CAY-1 Control / Total Weight of mixture: —: No viability reduction observed", "settings": "for Lowest concentration showing significant (p < 0.001) viability reduction: CAY-1 Control / Total Weight of mixture: 30 min incubation", "description": "as §1, §2, §3, §4"}, "[7]": {"system": "germinating conidia of A. flavus", "test": "Time of fungicidal activity (time course study)", "type": "cell-based, Aspergillus flavus", "settings": "after 5 minutes of incubation; total weight 12.67 μg/ml (4:3:3: 12.64 μg/ml)", "description": "as §1, with “Detroit, Mich.) […] for seven” for “Detroit, Mich.) slants for seven”, “germinating conidia. Individual bioassays consisted of conidia (25 μl), PDB, and the appropriate amount of a mixture of CAY-1, 1081 and 919. The CAY-1 control (CAY-1 alone) bioassays measuring the fungicidal response against the same fungi were performed in a similar manner. Final test volumes were 250 μl. […] Time of fungicidal activity for the saponin mixtures was determined by using the germinating conidia of A. flavus. […] Significance (p<0.001) was determined between viability control and test saponin data.” for “germinating conidia.”"}, "[8]": {"system": "Fusarium species", "test": "Conidial viability bioassays, Fusarium species", "type": "cell-based", "settings": "nongerminated conidia of the tested Fusarium isolates", "description": "as §1, §2\nAfter a 30 min incubation period (30° C.), aliquots (50 μl) of each sample were spread on each of four potato dextrose agar plates. […]"}, "[9]": {"system": "germinating conidia of A. flavus", "settings": "within five minutes of the initiation of incubation; De Lucca et al., 2002; cited from earlier work"}, "[10]": {"system": "fungi of agricultural and medical importance", "settings": "pure saponin; De Lucca et al. 2002, 2006b and others; cited from earlier work"}, "[11]": {"system": "Aspergillus flavus, A. fumigatus and A. niger", "settings": "in vitro; De Lucca et al. 2006a; cited from earlier work"}, "[12]": {"settings": "germinating conidia, listed as CAY-1 control"}, "[13]": {"settings": "germinating conidia, listed as CAY-1 controls"}},
  "data": [
    {"smiles": "CC1CCC2(OC1)OC1CC3C4CCC5CC(OC6OC(CO)C(OC7OC(CO)C(O)C(OC8OC(CO)C(O)C(OC9OC(CO)C(O)C(O)C9O)C8O)C7OC7OC(CO)C(O)C(O)C7O)C(O)C6O)C(O)CC5(C)C4CCC3(C)C1C2C", "note": "(stereo not shown) [CAY-1]", "values": [
      {"measurement": "Lowest concentration showing significant (p < 0.001) viability reduction: CAY-1 Control / Total Weight of mixture", "setting": "[1]; germinating conidia", "value": 4.97, "unit": "µg/mL"},
      {"measurement": "Reduction of conidial viability / fungicidal activity (in words)", "setting": "[1]; [12]", "value": "significantly (p<0.001) lower viability counts"},
      {"measurement": "Reduction of conidial viability / fungicidal activity (in words)", "setting": "[1]; [13]", "value": "significant viability loss"},
      {"measurement": "Lowest concentration showing significant (p < 0.001) viability reduction: CAY-1 Control / Total Weight of mixture", "setting": "[1]; nongerminated conidia", "value": "—^#"},
      {"measurement": "Lowest concentration showing significant (p < 0.001) viability reduction: CAY-1 Control / Total Weight of mixture", "setting": "[2]; germinating conidia", "value": "—"},
      {"measurement": "Lowest concentration showing significant (p < 0.001) viability reduction: CAY-1 Control / Total Weight of mixture", "setting": "[2]; nongerminated conidia", "value": "—"},
      {"measurement": "Lowest concentration showing significant (p < 0.001) viability reduction: CAY-1 Control / Total Weight of mixture", "setting": "[3]; germinating conidia", "value": 6.62, "unit": "µg/mL"},
      {"measurement": "Reduction of conidial viability / fungicidal activity (in words)", "setting": "[3]; germinating conidia", "value": "No major differences"},
      {"measurement": "Reduction of conidial viability / fungicidal activity (in words)", "setting": "[3]; [12]", "value": "significantly (p<0.001) lower viability counts"},
      {"measurement": "Reduction of conidial viability / fungicidal activity (in words)", "setting": "[3]; [13]", "value": "significant viability loss"},
      {"measurement": "Lowest concentration showing significant (p < 0.001) viability reduction: CAY-1 Control / Total Weight of mixture", "setting": "[3]; nongerminated conidia", "value": "—"},
      {"measurement": "Lowest concentration showing significant (p < 0.001) viability reduction: CAY-1 Control / Total Weight of mixture", "setting": "[4]; germinating conidia", "value": "—"},
      {"measurement": "Lowest concentration showing significant (p < 0.001) viability reduction: CAY-1 Control / Total Weight of mixture", "setting": "[4]; nongerminated conidia", "value": "—"},
      {"measurement": "Lowest concentration showing significant (p < 0.001) viability reduction: CAY-1 Control / Total Weight of mixture", "setting": "[5]; germinating conidia", "value": 12.43, "unit": "µg/mL"},
      {"measurement": "Reduction of conidial viability / fungicidal activity (in words)", "setting": "[5]; germinating conidia", "value": "significantly fungicidal"},
      {"measurement": "Reduction of conidial viability / fungicidal activity (in words)", "setting": "[5]; [13]", "value": "significant viability loss"},
      {"measurement": "Lowest concentration showing significant (p < 0.001) viability reduction: CAY-1 Control / Total Weight of mixture", "setting": "[5]; nongerminated conidia", "value": "—"},
      {"measurement": "Lowest concentration showing significant (p < 0.001) viability reduction: CAY-1 Control / Total Weight of mixture", "setting": "[6]; germinating conidia", "value": "—"},
      {"measurement": "Reduction of conidial viability / fungicidal activity (in words)", "setting": "[6]; germinating conidia, FIG. 2D", "value": "inactive"},
      {"measurement": "Lowest concentration showing significant (p < 0.001) viability reduction: CAY-1 Control / Total Weight of mixture", "setting": "[6]; nongerminated conidia", "value": "—"},
      {"measurement": "Activity (in words)", "setting": "[7]", "value": "inactive"},
      {"measurement": "Reduction of conidial viability (in words)", "setting": "[8]", "value": "not reduced"},
      {"measurement": "Dose producing significant lethality", "setting": "[9]", "value": 12.4, "unit": "µg/mL"},
      {"measurement": "Antifungal properties (in words)", "setting": "[10]", "value": "potent fungicidal properties"},
      {"measurement": "Interaction with Amphotericin B and intraconazole", "setting": "[11]", "value": "additive synergy"}
    ]}
  ]
}
